The text below walks through data of patent US12577231B2, “Androgen receptor PROTACS” (GlaxoSmithKline Intellectual Property Development Limited, priority 2023, dated 2026).

The test system of data set [1] is Androgen Receptor in human prostate cancer cell lines. As to the kind of experiment: Androgen Receptor Degradation-Imaging Assay, all prostate cancer cell lines (FIG. 2). The format is cell-based. The following applies: 16 hours treatment. The protocol: Degradation of Androgen Receptor (AR) protein in human prostate cancer cell lines (MDA-PCa-2b (AR T878A/L702H), LNCaP (AR T878A), VCaP (AR wild type and amplified) 22RV1 (AR H875Y) and PC3 (AR negative control)) treated with AR PROTACs was quantified using immunofluorescence. Prostate cancer cells were plated (MDA-PCa-2b, and VCaP 16,000 cells/well; LNCaP and 22RV1 32,000 cells/well, and PC3 8,000 cells/well) in an optical bottom 96-well cell culture plate and allowed to attach overnight. The prostate cancer cell lines were treated for 16 hours with a 10-point 3-fold dilution series (dose range=0.02 nM to 333 nM). PC3 is included as an AR negative control and not treated with compound. […] Following washes with IF buffer, cells were incubated with fluorescent secondary antibody (Goat anti-rabbit Alexa 647; commercially available from Invitrogen) and Hoechst nuclear stain (commercially available from Themo Scientific) prior to quantification of nuclear AR levels via Opera Phenix high-content fluorescent imager using a 40× water objective. […]
The averaged nuclear Alexa 647 median fluorescence intensity (MFI) of PC3 cells is subtracted from the nuclear Alexa 647 MFI of PROTAC treated and DMSO control treated cells. % AR remaining is calculated for PROTAC treatments as a percent of the DMSO control (MFI PROTAC treated/MFI DMSO control treated)*100). […]

The nature of the next data set: in vivo. The following applies: male, Wistar Han, rat, po.

Experimental for in vivo: Systemic exposure of various forms of N-((1r,3r)-3-(4-cyano-3-methoxyphenoxy)-2,2,4,4-tetramethylcyclobutyl)-4-(4-((4-(4-(2,4-dioxotetrahydropyrimidin-1(2H)-yl)-1H-pyrazolo[4,3-c]pyridin-1-yl)piperidin-1-yl)methyl)piperidin-1-yl)-3-fluorobenzamide were assessed following oral administration of 30 mg/kg of a suspension formulation (1% methylcellulose (aq)) or following oral administration of 35 mg/kg of a suspension formulation (100% PEG400) in the male Wistar Han rat. […] The sampling period was 72 hours, and the data is reported in the attached table as mean±SD (n=3).

`COc1cc(O[C@H]2C(C)(C)[C@H](NC(=O)c3ccc(N4CCC(CN5CCC(n6ncc7c(N8CCC(=O)NC8=O)nccc76)CC5)CC4)c(F)c3)C2(C)C)ccc1C#N` [Example 20, N-((1r,3r)-3-(4-Cyano-3-methoxyphenoxy)-2,2,4,4-tetramethylcyclobutyl)-4-(4-((4-(4-(2,4-dioxotetrahydropyrimidin-1(2H)-yl)-1H-pyrazolo[4,3-c]pyridin-1-yl)piperidin-1-yl)methyl)piperidin-1-yl)-3-fluorobenzamide]: the “percentage of Androgen Receptor remaining versus concentration (FIG. 2)” value in data set [1] is on record as “Good reductions”. Also, in the data set “in vivo” (30 mg/kg), the AUC0-t came out at 7220 ± 1220 ng·h/mL, the Cmax is 318 ± 50 ng/mL and the time to peak (Tmax) turned out to be 8 h. In addition, in the data set “in vivo” (35 mg/kg), the AUC0-t came out at 26200 ± 1750 ng·h/mL, the Cmax came to 849 ± 98 ng/mL and the Tmax came to 8.7 ± 3 h.

In general, Cmax refers to the maximum level reached in the sampled fluid or tissue. What is called Tmax is the time at which the peak concentration occurs.
